From patent US8329686B2, “Isatin analogues and uses therefor” (Washington University, priority 2006, dated 2012)
Like-named read-outs stand apart in the source and are kept apart here.

What was measured:
caspase-3 = target: T1, caspase-3 (Homo sapiens, UniProt P42574); experiment: Enzyme inhibition assay, caspase 3 (fluorogenic Ac-DEVD-AMC); type: biochemical; conditions: read-out: IC50 (nM) caspase-3
T1 construct: purchased Sigma-Aldrich (St. Louis, Mo.)
T1 sequence (P42574 29-175 limits assumed): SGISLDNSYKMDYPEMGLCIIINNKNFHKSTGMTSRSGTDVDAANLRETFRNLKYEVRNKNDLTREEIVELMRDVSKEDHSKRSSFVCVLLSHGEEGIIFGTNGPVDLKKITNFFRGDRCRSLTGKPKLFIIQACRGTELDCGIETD
T1 sequence (P42574 176-277 limits assumed): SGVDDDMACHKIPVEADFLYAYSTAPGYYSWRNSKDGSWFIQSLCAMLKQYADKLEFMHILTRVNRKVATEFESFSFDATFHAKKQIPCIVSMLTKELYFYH
Method: Enzyme Assays. Inhibition of recombinant human caspase-3 and other caspases by the isatin analogues was assessed using a fluorometric assay by measuring the accumulation of a fluorogenic product, 7-amino-4-methylcoumarin (7-AMC).
Enzyme Inhibition Assays. Recombinant human caspases (3, 6, 7, and 8) and their peptide-specific substrates (Ac-DEVDAMC, Ac-VEID-AMC, Ac-DEVD-AMC, and Ac-IETD-AMC, respectively) were purchased from Sigma-Aldrich (St. Louis, Mo.) with the exception of caspase 1 and its substrate (Ac-YVAD-AMC), which were obtained from BIOMOL Research Laboratories (Plymouth Meeting, Pa.). The enzymatic activity of caspases was determined by measuring the accumulation of the fluorogenic product 7-amino-4-methylcoumarin (AMC). All assays were prepared in 96-well format at a volume of 210 μL per well and consisted of 100 mM Na+ HEPES (pH 7.4), 10% sucrose, 100 mM NaCl, 0.1% CHAPS, 5 mM 2-mercaptoethanol, 2 mM EDTA, 10 μM Ac-YVAD-AMC (caspase 1); 20 mMNa^+ HEPES (pH 7.4), 10% sucrose, 100 mMNaCl, 0.1% CHAPS, 2 mM EDTA, 10 μM Ac-DEVD-AMC (caspase 3); 20 mM Na^+ HEPES (pH 7.4), 10% sucrose, 100 mM NaCl, 0.1% CHAPS, 2 mM EDTA, 10 μM Ac-VEID-AMC (caspase 6); 20 mM Na+ HEPES (pH 7.4), 100 mM NaCl, 10% sucrose, 0.1% CHAPS, 5 mM 2-mercaptoethanol, 2 mM EDTA, 10 μM Ac-DEVD-AMC (caspase 7); 20 mM Na+ HEPES (pH 7.4), 10% sucrose, 100 mM NaCl, 0.1% CHAPS, 2 mM EDTA, 10 μM Ac-IETD-AMC (caspase 8).
Recombinant caspases were first assayed to determine the optimal concentration for each experiment. Optimal concentrations were based in the linear range of the enzyme activation curves. Peptide inhibitors with known IC50 values were tested together with the compounds as a control for each caspase assay. […] Peptide and nonpeptide inhibitors were dissolved in DMSO, and a 2 serial dilution was performed prior to screening in order to obtain desired concentrations. 10 μL was added to each well containing 100 μL caspase solution and allowed to incubate on ice for 30 min. […] The final concentration of DMSO in all wells was 5% of the total volume. In caspase-1 and caspase-7 assays, 10 mM 2-mercaptoethanol was added to the substrate solution for full activation of the enzymes.
Compounds were tested in duplicate, and IC50 curves were calculated for all inhibitors assayed. Final IC50s were the average of three independent experiments.

caspase 7 = target: T2, caspase 7 (Homo sapiens, UniProt P55210); experiment: Enzyme inhibition assay, caspase 7 (fluorogenic Ac-DEVD-AMC); type: biochemical; conditions: for IC50: read-out: IC50 (nM) caspase-7
T2 construct: purchased Sigma-Aldrich (St. Louis, Mo.)
T2 sequence (P55210 24-198 limits assumed): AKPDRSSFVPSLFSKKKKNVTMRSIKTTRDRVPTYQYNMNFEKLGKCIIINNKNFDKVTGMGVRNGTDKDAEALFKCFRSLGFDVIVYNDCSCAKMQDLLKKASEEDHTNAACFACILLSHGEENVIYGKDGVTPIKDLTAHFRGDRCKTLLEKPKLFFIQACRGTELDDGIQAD
T2 sequence (P55210 207-303 limits assumed): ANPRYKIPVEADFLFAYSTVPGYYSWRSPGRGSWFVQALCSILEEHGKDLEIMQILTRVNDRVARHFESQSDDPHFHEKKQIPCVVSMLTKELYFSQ

| SMILES | IC50 (caspase-3; Table 4) | IC50 (caspase 7; Table 4) | melting point | IC50 (caspase-3; Table 5) | IC50 (caspase 7; Table 5) | fold less potent for inhibiting caspase-7 (caspase 7; relative to the corresponding pyrrolidine analogue 10) |
| --- | --- | --- | --- | --- | --- | --- |
| O=C1C(=O)N(Cc2ccnc(F)c2)c2ccc(S(=O)(=O)N3CCC[C@H]3COc3ccccc3)cc21 [Compound 11h, (S)-1-(2-Fluoro-pyridin-4-yl-methyl)-5-(2-phenoxymethyl-pyrrolidine-1-sulfonyl)-1H-indole-2,3-dione] | 21.3 ± 3.2 nM | 58 ± 2.8 nM | 180.1 to 181.9 °C |  |  |  |
| COc1ccc(CN2C(=O)C(=O)c3cc(S(=O)(=O)N4CC[C@H]4COc4ccccc4)ccc32)cc1 [Compound 18c, (S)-1-(4-Methoxybenzyl)-5-(2-phenoxymethyl-azetidine-1-sulfonyl)-1H-indole-2,3-dione] |  |  | 159.8 to 161.5 °C | 8.4 ± 1.2 nM | 23.2 ± 3 nM |  |
| O=C1C(=O)N(Cc2ccc(F)nc2)c2ccc(S(=O)(=O)N3CC[C@H]3COc3ccccc3)cc21 [Compound 18g, (S)-1-(6-Fluoropyridin-3-ylmethyl)-5-(2-phenoxymethylazetidine-1-sulfonyl)-1H-indole-2,3-dione] |  |  | 176.8 to 178.3 °C | 10.9 ± 1.4 nM | 17 ± 3 nM |  |
| CN1C(=O)C(=O)c2cc(S(=O)(=O)N3CC[C@H]3COc3ccccc3)ccc21 [Compound 18a, (S)-1-Methyl-5-(2-phenoxymethyl-azetidine-1-sulfonyl)-1H-indole-2,3-dione] |  |  | 173.5 to 174.9 °C | 91.7 ± 7.6 nM | 362.5 ± 3.5 nM |  |
| O=C1C(=O)N(Cc2ccccc2F)c2ccc(S(=O)(=O)N3CC[C@H]3COc3ccccc3)cc21 [Compound 18f, (S)-1-(2-Fluorobenzyl)-5-(2-phenoxymethyl-azetidine-1-sulfonyl)-1H-indole-2,3-dione] |  |  | 147.1 to 148 °C | 9.4 ± 0.3 nM | 26 ± 5.2 nM |  |
| O=C1C(=O)N(Cc2ccnc(F)c2)c2ccc(S(=O)(=O)N3CC[C@H]3COc3ccccc3)cc21 [Compound 18h, (S)-1-(2-Fluoropyridin-4-yl-methyl)-5-(2-phenoxymethylazetidine-1-sulfonyl)-1H-indole-2,3-dione] |  |  | 159 to 159.9 °C | 29.2 ± 5.2 nM | 135 ± 7.1 nM |  |
| O=C1C(=O)N(Cc2ccccc2)c2ccc(S(=O)(=O)N3CCC[C@H]3COc3ccccc3)cc21 [Compound 2, (S)-1-Benzyl-5-(2-phenoxymethyl-pyrrolidine-1-sulfonyl)-1H-indole-2,3-dione] | 12.2 ± 0.3 nM | 28 ± 0.7 nM | 97.2 to 99.1 °C |  |  |  |
| O=C1Nc2ccc(S(=O)(=O)N3CC[C@H]3COc3ccccc3)cc2C1=O [Compound 17, (S)-5-(2-Phenoxymethyl-azetidine-1-sulfonyl)-1H-indole-2,3-dione] |  |  | 173.2 to 174.5 °C | 287 ± 24.7 nM | 1350 ± 141 nM | > 2 fold |
| CSc1ccc(CN2C(=O)C(=O)c3cc(S(=O)(=O)N4CC[C@H]4COc4ccccc4)ccc32)cc1 [Compound 18d, (S)-1-(4-Methylthiobenzyl)-5-(2-phenoxymethyl-azetidine-1-sulfonyl)-1H-indole-2,3-dione] |  |  | 167.6 to 169.2 °C | 11.3 ± 1.2 nM | 26.7 ± 7.2 nM |  |
| O=C1C(=O)N(Cc2cccc(F)n2)c2ccc(S(=O)(=O)N3CC[C@H]3COc3ccccc3)cc21 [Compound 18i, (S)-1-(6-Fluoropyridin-2-yl-methyl)-5-(2-phenoxymethylazetidine-1-sulfonyl)-1H-indole-2,3-dione] |  |  | 144.7 to 146.1 °C | 5.8 ± 1 nM | 22.7 ± 3.1 nM |  |
| O=C1C(=O)N(Cc2ccccc2)c2ccc(S(=O)(=O)N3CC[C@H]3COc3ccccc3)cc21 [Compound 18b, (S)-1-Benzyl-5-(2-phenoxymethyl-azetidine-1-sulfonyl)-1H-indole-2,3-dione] |  |  | 157.1 to 158.9 °C | 9.7 ± 1.6 nM | 29.5 ± 4.9 nM |  |
